The test system of assay [1] is MES SA DX (MES SA cell line with marked multi-drug resistance). As to the kind of experiment: In vitro cytotoxicity assay (CellTiter-Glo, 72 hours), MES SA DX. The conditions noted are these: Homo sapiens, MES-SA, 72 h, read-out: MES SA DX, IC50 Value in nM.
Assay [2] relates to MES SA (uterine sarcoma cell line). Briefly: In vitro cytotoxicity assay (CellTiter-Glo, 72 hours), MES SA. It counts as cell-based. The conditions noted are these: Homo sapiens, MES-SA, 72 h, read-out: MES SA, IC50 Value in nM.
Assay [3] deals with HEK 293T (human embryonic kidney cancer cell line). Briefly: In vitro cytotoxicity assay (CellTiter-Glo, 72 hours), HEK 293T. It counts as cell-based. The conditions noted are these: Homo sapiens, HEK-293T, 72 h, read-out: HEK 293T, IC50 Value in nM. (Cellular ATP, detected with luciferase, serves as a proxy for viable cell number.)

IC50 data for 15 molecules are collected here from patent US11274124B2, “Tubulysin analogues as anticancer agents and payloads for antibody-drug conjugates and methods of treatment therewith” (William Marsh Rice University, priority 2017, dated 2022).

A value given as a limit tells only on which side of the number the result lay.

With `COC(=O)[C@@H](C)C[C@H](Cc1ccccc1)NC(=O)c1nc([C@@H](C[C@H](C(C)C)N(C)C(=O)[C@@H](NC(=O)[C@H]2C[C@H](O)CCN2C)C(C)C)OC(C)=O)sc1C(C)C` [Tb74, Methyl (2S,4R)-4-[({2-[(1R,3R)-1-acetoxy-3-{[(2S)-2-({[(2R,4R)-4-hydroxy-1-methylpiperidin-2-yl]-carbonyl}amino)-3-methylbutanoyl](methyl)amino}-4-methylpentyl]-5-isopropyl-1,3-thiazol-4-yl}-carbonyl)amino]-2-methyl-5-phenylpentanoate], the IC50 (in general, the concentration that inhibits the measured activity by half) in assay [1] is > 400 nM; in assay [2], 5.32 nM; in assay [3] it was 2.46 nM.

`COC(=O)[C@@H](C)C[C@H](Cc1ccccc1)NC(=O)c1nc([C@@H](C[C@H](C(C)C)N(C)C(=O)[C@@H](NC(=O)[C@H]2CC(=O)CCN2C)C(C)C)OC(C)=O)sc1C(C)C` [Tb75, Methyl (2S,4R)-4-[({2-[(1R,3R)-1-acetoxy-4-methyl-3-{methyl[(2S)-3-methyl-2-({[(2R)-1-methyl-4-oxopiperidin-2-yl]carbonyl}amino)butanoyl]amino}pentyl]-5-isopropyl-1,3-thiazol-4-yl}carbonyl)-amino]-2-methyl-5-phenylpentanoate]: the IC50 is > 400 nM in assay [1], ≥ 400 nM in assay [2] and 127 nM in assay [3].

`CCOC(=O)[C@@H](C)C[C@H](Cc1ccccc1)NC(=O)c1csc([C@@H](C[C@H](C(C)C)N(C)C(=O)[C@@H](NC(=O)[C@H]2C[C@H](O)CCN2C)C(C)C)OC(C)=O)n1` [Tb76, Ethyl (2S,4R)-4-[({2-[(1R,3R)-1-acetoxy-3-{[(2S)-2-({[(2R,4R)-4-hydroxy-1-methylpiperidin-2-yl]-carbonyl}amino)-3-methylbutanoyl](methyl)amino}-4-methylpentyl]-1,3-thiazol-4-yl}carbonyl)-amino]-2-methyl-5-phenylpentanoate]: the IC50 was > 2500 nM in assay [1], 4.88 nM in assay [2] and 1.37 nM in assay [3].

With `COC(=O)[C@@H](C)C[C@H](Cc1ccccc1)NC(=O)c1csc([C@@H](C[C@H](C(C)C)N(C)C(=O)[C@@H](NC(=O)[C@H]2CCCCN2C)C(C(F)(F)F)C(F)(F)F)OC(C)=O)n1` [Tb79, Methyl (2S,4R)-4-[({2-[(1R,3R)-1-acetoxy-4-methyl-3-{methyl[(2S)-4,4,4-trifluoro-2-({[(2R)-1-meth-ylpiperidin-2-yl]carbonyl}amino)-3-(trifluoromethyl)butanoyl]amino}pentyl]-1,3-thiazol-4-yl}carbonyl)amino]-2-methyl-5-phenylpentanoate], the IC50 in assay [1] is > 1000 nM; in assay [2], 39.1 nM; in assay [3] it was 36.4 nM.

Take `COC(=O)[C@@H](C)C[C@H](Cc1ccccc1)NC(=O)c1csc([C@H](O)C[C@H](C(C)C)N(C)C(=O)[C@@H](NC(=O)[C@H]2CCCCN2C)C(C(F)(F)F)C(F)(F)F)n1` [Tb80, Methyl (2S,4R)-4-[({2-[(1R,3R)-1-hydroxy-4-methyl-3-{methyl[(2S)-4,4,4-trifluoro-2-({[(2R)-1-methylpiperidin-2-yl]carbonyl}amino)-3-(trifluoromethyl)butanoyl]amino}pentyl]-1,3-thiazol-4-yl}-carbonyl)amino]-2-methyl-5-phenylpentanoate]: the IC50 in assay [1], in assay [2] and in assay [3] was > 1000 nM in each case.

Consider `COC(=O)[C@@H](C)C[C@H](Cc1ccccc1)NC(=O)c1csc([C@@H](C[C@H](C(C)C)N(C)C(=O)[C@H](CC(F)(F)F)NC(=O)[C@H]2CCCCN2C)OC(C)=O)n1` [Tb81, Methyl (2S,4R)-4-[({2-[(1R,3R)-1-acetoxy-4-methyl-3-{methyl[(2S)-4,4,4-trifluoro-2-({[(2R)-1-meth-ylpiperidin-2-yl]carbonyl}amino)butanoyl]amino}pentyl]-1,3-thiazol-4-yl}carbonyl)amino]-2-methyl-5-phenylpentanoate], for which the figures for the IC50 in assay [1], in assay [2] and in assay [3] were > 1000 nM, 5.84 nM and 4.98 nM, respectively.

Consider `COC(=O)[C@@H](C)C[C@H](Cc1ccccc1)NC(=O)c1csc([C@@H](C[C@H](C(C)C)N(C)C(=O)[C@H](CC(F)(F)F)NC(=O)[C@H]2CCCN2C)OC(C)=O)n1` [Tb82, Methyl (2S,4R)-4-[({2-[(1R,3R)-1-acetoxy-4-methyl-3-{methyl[(2S)-4,4,4-trifluoro-2-({[(2R)-1-methylpyrrolidin-2-yl]carbonyl}amino)butanoyl]amino}pentyl]-1,3-thiazol-4-yl}carbonyl)amino]-2-methyl-5-phenylpentanoate], for which the 50% inhibitory concentration (IC50) in assay [1] was > 1000 nM; in assay [2], 47.5 nM; in assay [3], 51.6 nM.

For the molecule `CC(C)[C@@H](C[C@@H](O)c1nc(C(=O)N[C@@H](Cc2ccccc2)C[C@H](C)C(=O)O)cs1)N(C)C(=O)[C@H](CC(F)(F)F)NC(=O)[C@H]1CCCCN1C` [Tb83, (2S,4R)-4-[({2-[(1R,3R)-1-Hydroxy-4-methyl-3-{methyl[(2S)-4,4,4-trifluoro-2-({[(2R)-1-methyl-piperidin-2-yl]carbonyl}amino)butanoyl]amino}pentyl]-1,3-thiazol-4-yl}carbonyl)amino]-2-methyl-5-phenylpentanoic acid], the IC50 in assay [1], in assay [2] and in assay [3] was > 1000 nM each time.

Regarding `CC(C)[C@@H](C[C@@H](O)c1nc(C(=O)N[C@@H](Cc2ccccc2)C[C@H](C)C(=O)O)cs1)N(C)C(=O)[C@H](CC(F)(F)F)NC(=O)[C@H]1CCCN1C` [Tb84, (2S,4R)-4-[({2-[(1R,3R)-1-Hydroxy-4-methyl-3-{methyl[(2S)-4,4,4-trifluoro-2-({[(2R)-1-methyl-pyrrolidin-2-yl]carbonyl}amino)butanoyl]amino}pentyl]-1,3-thiazol-4-yl}carbonyl)amino]-2-meth-yl-5-phenylpentanoic acid], the IC50 in assay [1], in assay [2] and in assay [3] was > 1000 nM each time.

Regarding `COC(=O)[C@@H](C)C[C@H](Cc1ccccc1)NC(=O)c1csc([C@@H](C[C@H](C(C)C)N(C)C(=O)[C@H](NC(=O)[C@H]2CCCCN2C)C(C(F)(F)F)C(F)(F)F)OC(C)=O)n1` [Tb85, Methyl(2S,4R)-4-[({2-[(1R,3R)-1-acetoxy-4-methyl-3-{methyl[(2R)-4,4,4-trifluoro-2-({[(2R)-1-meth-ylpiperidin-2-yl]carbonyl}amino)-3-(trifluoromethyl)butanoyl]amino}pentyl]-1,3-thiazol-4-yl}-carbonyl)amino]-2-methyl-5-phenylpentanoate], the half-inhibitory concentration (IC50) in assay [1] is > 1000 nM; in assay [2], 37.3 nM; in assay [3], 32.4 nM.

Take `COC(=O)[C@@H](C)C[C@H](Cc1ccccc1)NC(=O)c1csc([C@@H](C[C@H](C(C)C)N(C)C(=O)[C@H](NC(=O)[C@H]2CCCN2C)C(C(F)(F)F)C(F)(F)F)OC(C)=O)n1` [Tb86, Methyl (2S,4R)-4-[({2-[(1R,3R)-1-acetoxy-4-methyl-3-{methyl[(2R)-4,4,4-trifluoro-2-({[(2R)-1-meth-ylpyrrolidin-2-yl]carbonyl}amino)-3-(trifluoromethyl)butanoyl]amino}pentyl]-1,3-thiazol-4-yl}car-bonyl)amino]-2-methyl-5-phenylpentanoate]: the IC50 in assay [1], in assay [2] and in assay [3] was > 1000 nM throughout.

Turning to `CC(=O)O[C@H](C[C@H](C(C)C)N(C)C(=O)[C@H](NC(=O)[C@H]1CCCCN1C)C(C(F)(F)F)C(F)(F)F)c1nc(C(=O)N[C@@H](Cc2ccccc2)C[C@H](C)C(=O)O)cs1` [Tb87, (2S,4R)-4-[({2-[(1R,3R)-1-Acetoxy-4-methyl-3-{methyl[(2R)-4,4,4-trifluoro-2-({[(2R)-1-methyl-piperidin-2-yl]carbonyl}amino)-3-(trifluoromethyl)butanoyl]amino}pentyl]-1,3-thiazol-4-yl}carbonyl)amino]-2-methyl-5-phenylpentanoic acid], the values for the IC50 in assay [1], in assay [2] and in assay [3] were > 1000 nM, 234 nM and > 1000 nM, respectively.

On to `COC(=O)[C@@H](C)C[C@H](Cc1ccccc1)NC(=O)c1csc([C@@H](C[C@H](C(C)C)N(C)C(=O)[C@H](C)NC(=O)[C@H]2CCCCN2C)OC(C)=O)n1` [Tb89, Methyl (2S,4R)-4-[({2-[(1R,3R)-1-acetoxy-4-methyl-3-{methyl[(2S)-2-({[(2R)-1-methylpiperidin-2-yl]carbonyl}amino)propanoyl]amino}pentyl]-1,3-thiazol-4-yl}carbonyl)amino]-2-methyl-5-phenylpentanoate], for which the IC50 in assay [1], in assay [2] and in assay [3] was > 1000 nM throughout.

As to `COC(=O)[C@@H](C)C[C@H](Cc1ccccc1)NC(=O)c1csc([C@@H](C[C@H](C(C)C)N(C)C(=O)[C@H](C)NC(=O)[C@H]2CCCN2C)OC(C)=O)n1` [Tb90, Methyl (2S,4R)-4-[({2-[(1R,3R)-1-acetoxy-4-methyl-3-{methyl[(2S)-2-({[(2R)-1-methylpyrrolidin-2-yl]carbonyl}amino)propanoyl]amino}pentyl]-1,3-thiazol-4-yl}carbonyl)amino]-2-methyl-5-phenylpentanoate], the figures for the IC50 in assay [1], in assay [2] and in assay [3] were > 1000 nM, > 1000 nM and 636 nM, respectively.

For the molecule `CC(=O)O[C@H](C[C@H](C(C)C)N(C)C(=O)[C@H](C)NC(=O)[C@H]1CCCCN1C)c1nc(C(=O)N[C@@H](Cc2ccccc2)C[C@H](C)C(=O)O)cs1` [Tb91, (2S,4R)-4-[({2-[(1R,3R)-1-Acetoxy-4-methyl-3-{methyl[(2S)-2-({[(2R)-1-methylpiperidin-2-yl]car-bonyl}amino)propanoyl]amino}pentyl]-1,3-thiazol-4-yl}carbonyl)amino]-2-methyl-5-phenylpentanoic acid], the IC50 in assay [1], in assay [2] and in assay [3] was > 1000 nM in each case.
